Test results as given in patent US20260297035A1, “PROTEIN KINASE INHIBITORS AND USES THEREOF” (DELiver Therapeutics, Inc., priority 2023, published 2026).
Structures can show the parent of a compound that is named as a salt.

Assays:
[1] = Relative viability (CellTiterGlo) of senescent IMR90 fibroblasts; assay type: cell-based, human; conditions: human, senescent imr90 fibroblasts
Procedure: (§1) In the assay, IMR90 fibroblasts were plated at a density of 3E6 cells in a T175 tissue culture (TC)-treated flask. The flasks were placed into a tissue culture incubator and cells were allowed to adhere to the bottom of the wells for 24 hours. After cell adherence, the TC-treated flasks containing the cells were placed into a MultiRad225 X-ray irradiator, where cells were exposed to 10 grays (Gy) of ionizing […] irradiation. After irradiation, flasks were returned to the tissue culture incubator for 7 days, refreshing the cell media every 3 days.
(§2) After the 7-day incubation period that allowed full senescence transformation, cells were detached from the TC-treated flasks using 0.25% trypsin-EDTA solution. Cells were then split, and two experiments were conducted simultaneously: (1) verification of senescence induction via β-galactosidase staining (a senescent cell marker) and (2) analysis of senomorphic activity of compounds.
(§3) Cells also were measured for relative viability to generate cytotoxicity curves associated with the varying concentrations of compounds. […] LD50 values were measured by normalizing luminescence intensity to the lowest drug concentration. GraphPad Prism was used to plot and calculate LD50 values from the cytotoxic kill curves. Curves were fit to a non-linear regression model, with compound concentration vs. response and variable slope (four parameters).

IMR90 fibroblasts = assay: as above; assay type: cell-based, human; conditions: at IL-6 reducing concentrations
Procedure: as §1, §2, §3

IMR90 fibroblasts, IL-6 = assay: Senomorphic activity: IL-6 reduction (ELISA) in senescent IMR90 fibroblasts; assay type: cell-based, human; conditions: for IL-6 reduction potency compared with pacritinib: compared with control drug pacritinib
Procedure: Senomorphic activity of compounds were assessed by determining whether the compounds could inhibit the senescence-associated secretory phenotype (SASP) in senescent cells, which is associated with overproduction and secretion of pro-inflammatory factors. Although many of these factors are associated primarily with macrophages and monocytes, they can also be made by a variety of senescent and activated cell types, such as fibroblasts. Specifically, IMR90 fibroblasts are known to overproduce these factors, especially when rendered senescent.
as §1, §2
For verification of senescence induction, 2.5E4 cells were plated in TC-treated 6-well plates. After overnight adherence to the TC-plates, cells were fixed and stained for β-galactosidase accumulation following the manufacturer's standard protocol (e.g., Millipore Sigma, Senescence Cells Histochemical Staining Kit, CS0030-1KT). Brightfield microscopy was used to image the cells and ImageJ software was used to calculate the percentage of senescent cells per well. Non-irradiated IM90 fibroblasts were used as a non-senescent control.
To test the senomorphic activity of compounds, 1E4 cells were plated in 96-well plates. After overnight adherence to the 96-well plates, compounds were added in half-log dilutions to the wells containing the cells. Compounds that were effective inhibitors of JAK2 and were not effective inhibitors of JAK1 were assayed (JAK2 selective inhibitors). Twenty-four hours after compounds were added, cell culture media was collected and analyzed by various enzyme linked immunosorbent assays (ELISAs) for the expression of SASP-associated cytokines, including IL-6, TGF-beta, and TNF-alpha. The manufacturer's protocol was followed for ELISA analysis (e.g., Abcam, Human IL-6 ELISA kit, ab178013). Cytokine levels were compared to untreated controls and reduction of cytokine production was plotted and calculated using GraphPad Prism analysis software.

JAK2 = conditions: cited from earlier work
TEC = conditions: control inhibitor; Tracer 178 at 1 nM; cited from earlier work
DDR2-T654M = conditions: control inhibitor; Tracer 178 at 100 nM; cited from earlier work
SRC = conditions: control inhibitor; Tyr 02; ATP 50 uM; cited from earlier work
SRC-N1 = conditions: control inhibitor; Tyr 02; ATP 50 uM; cited from earlier work
BTK = conditions: control inhibitor; Tyr 01; ATP 25 uM; cited from earlier work
LCK = conditions: control inhibitor; Tyr 02; ATP 50 uM; cited from earlier work
ABL1(wt) = ABL1(wt) (Homo sapiens, UniProt P00519); conditions: control inhibitor; Tyr 02; ATP 10 μM; cited from earlier work
Sequence of ABL1(wt) (P00519 with tags, fused parts or gaps): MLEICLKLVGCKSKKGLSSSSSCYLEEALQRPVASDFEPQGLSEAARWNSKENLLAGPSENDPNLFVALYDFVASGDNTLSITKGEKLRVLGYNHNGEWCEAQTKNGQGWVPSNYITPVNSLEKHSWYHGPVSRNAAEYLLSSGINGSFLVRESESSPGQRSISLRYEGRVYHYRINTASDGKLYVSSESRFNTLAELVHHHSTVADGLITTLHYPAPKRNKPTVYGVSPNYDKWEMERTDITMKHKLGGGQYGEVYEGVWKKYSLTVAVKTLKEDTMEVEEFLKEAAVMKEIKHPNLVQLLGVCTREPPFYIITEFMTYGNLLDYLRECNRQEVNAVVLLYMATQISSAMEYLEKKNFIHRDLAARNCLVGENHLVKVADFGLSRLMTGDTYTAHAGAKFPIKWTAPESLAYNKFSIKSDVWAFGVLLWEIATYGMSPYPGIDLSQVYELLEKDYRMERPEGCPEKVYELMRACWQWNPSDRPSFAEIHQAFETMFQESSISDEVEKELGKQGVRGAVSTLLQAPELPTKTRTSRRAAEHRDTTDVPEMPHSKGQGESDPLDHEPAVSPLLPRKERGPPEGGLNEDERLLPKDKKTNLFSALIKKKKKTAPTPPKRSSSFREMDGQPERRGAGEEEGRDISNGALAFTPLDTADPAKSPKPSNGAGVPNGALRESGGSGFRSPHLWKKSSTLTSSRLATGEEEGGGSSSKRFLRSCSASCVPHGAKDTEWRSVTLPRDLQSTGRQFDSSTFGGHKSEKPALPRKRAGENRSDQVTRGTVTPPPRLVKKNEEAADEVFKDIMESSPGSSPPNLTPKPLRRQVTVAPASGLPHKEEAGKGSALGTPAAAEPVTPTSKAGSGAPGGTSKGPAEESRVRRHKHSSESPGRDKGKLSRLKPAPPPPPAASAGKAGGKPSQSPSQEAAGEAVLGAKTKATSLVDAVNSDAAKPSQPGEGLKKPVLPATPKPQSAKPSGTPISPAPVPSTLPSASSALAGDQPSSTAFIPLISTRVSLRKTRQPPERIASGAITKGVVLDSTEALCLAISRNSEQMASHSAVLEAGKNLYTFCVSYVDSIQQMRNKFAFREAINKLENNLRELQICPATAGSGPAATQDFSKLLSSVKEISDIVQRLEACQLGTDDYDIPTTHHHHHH

ABL2 (Arg) = conditions: control inhibitor; Tyr02; ATP 25 uM; cited from earlier work
EPHB2 = conditions: control inhibitor; Tyr 02; ATP 75 uM; cited from earlier work
RET = conditions: control inhibitor; Tyr 02; ATP 10 uM; cited from earlier work
TXK = conditions: control inhibitor; Tyr 06; ATP 100 uM; cited from earlier work
ROS1 = conditions: control inhibitor; Tyr 01; ATP 50 uM; cited from earlier work
RET-M918T = conditions: control inhibitor; Tracer 236 at 10 nM; cited from earlier work
PTK2B (FAK2) = conditions: control inhibitor; Tyr 01; ATP 5 uM; cited from earlier work
ABL1 F317L = conditions: control inhibitor; Tyr 02; ATP 10 μM; cited from earlier work
TNK2 (ACK) = conditions: control inhibitor; Tracer 236 at 30 nM; cited from earlier work
EPHA1 = conditions: control inhibitor; Tyr02; ATP 25 uM; cited from earlier work
RET-V804M = conditions: control inhibitor; Tracer 236 at 5 nM; cited from earlier work
EPHA5 = conditions: control inhibitor; Tyr 01; ATP 150 uM; cited from earlier work
RET-V804E = conditions: control inhibitor; Tyr 04; ATP 50 uM; cited from earlier work

## C=CC(=O)Nc1cc(Nc2ncc3cccc(-c4ccc(F)cc4OC(C)C)c3n2)ccc1C [Cmpd53, N-(5-((8-(4-fluoro-2-isopropoxyphenyl)quinazolin-2-yl)amino)-2-methylphenyl)acrylamide]
[1]; at 0.8 nM and 800 nM
  viability: 100%
IMR90 fibroblasts
  cell toxicity (in words): without cell toxicity
IMR90 fibroblasts, IL-6
  IL-6 reduction (in words): potent IL-6 reduction at sub-toxic drug levels
  IL-6 reduction potency compared with pacritinib: more potent than the control drug pacritinib
IMR90 fibroblasts, IL-6; Homo sapiens, IMR-90, 0.8 nM, 24 hours, read-out: IL-6 production reduction
  inhibition at 0.0008 µM: 82.2%
IMR90 fibroblasts, IL-6; Homo sapiens, IMR-90, 800 nM, 24 hours, read-out: IL-6 production reduction
  inhibition at 0.8 µM: 82.9%

## C[C@@H]1CCN(C(=O)CC#N)C[C@@H]1N(C)c1ncnc2[nH]ccc12 [tofacitinib]
JAK2
  JAK2 selectivity: not selective inhibitors of JAK2 PK

## N#CC[C@H](C1CCCC1)n1cc(-c2ncnc3[nH]ccc23)cn1 [ruxolitinib]
JAK2
  JAK2 selectivity: not selective inhibitors of JAK2 PK

## Cc1nc(Nc2ncc(C(=O)Nc3c(C)cccc3Cl)s2)cc(N2CCN(CCO)CC2)n1 [dasatinib]
TEC
  IC50: […]
DDR2-T654M
  IC50: 0.139 µM

## Cc1ccc(Nc2ncc3cccc(-c4ccc(F)cc4OC(C)C)c3n2)cc1N [Cmpd51, N1-(8-(4-fluoro-2-isopropoxyphenyl)quinazolin-2-yl)-4-methylbenzene-1,3-diamine hydrochloride]
[1]; at 0.4 nM and 1250 nM
  viability: 100%
IMR90 fibroblasts
  cell toxicity (in words): without cell toxicity
IMR90 fibroblasts, IL-6
  IL-6 reduction (in words): potent IL-6 reduction at sub-toxic drug levels
  IL-6 reduction potency compared with pacritinib: more potent than the control drug pacritinib
IMR90 fibroblasts, IL-6; Homo sapiens, IMR-90, 0.4 nM, 24 hours, read-out: IL-6 production reduction
  inhibition at 0.0004 µM: 67.5%
IMR90 fibroblasts, IL-6; Homo sapiens, IMR-90, 1250 nM, 24 hours, read-out: IL-6 production reduction
  inhibition at 1.25 µM: 71.6%

## COc1cc2ncnc(Nc3cccc(Cl)c3)c2cc1OC [Tyrphostin AG1478]
SRC
  IC50: 1.65 µM
SRC-N1
  IC50: 1.05 µM
BTK
  IC50: 1.8 µM
LCK
  IC50: 0.631 µM
ABL1(wt)
  IC50: 0.326 µM
ABL2 (Arg)
  IC50: 0.731 µM

## CN[C@@H]1C[C@H]2O[C@@](C)([C@@H]1OC)n1c3ccccc3c3c4c(c5c6ccccc6n2c5c31)C(=O)NC4 [Staurosporine]
EPHB2
  IC50: […]
RET
  IC50: […]
TXK
  IC50: […]
ROS1
  IC50: […]
RET-M918T
  IC50: 0.0038 µM
PTK2B (FAK2)
  IC50: 0.012 µM
ABL1 F317L
  IC50: 0.214 µM
TNK2 (ACK)
  IC50: […]
EPHA1
  IC50: […]
RET-V804M
  IC50: 0.00102 µM
EPHA5
  IC50: […]
RET-V804E
  IC50: 0.00229 µM
